Results: article PMC9632963, “Preclinical characterization and phase I clinical trial of CT053PTSA targets MET, AXL, and VEGFR2 in patients with advanced solid tumors” (Frontiers in Immunology, 2022)

Columns and labels:
[1] = target: VEGFR2 (Homo sapiens, UniProt P35968); assay: Kinase inhibition assay (LANCE or HTRF); format: biochemical; conditions: ATP at Km
Description: The IC50 values were determined by measuring phosphorylation of peptide substrate poly at ATP concentrations at the Km.

[2] = tested on: GA0046 PDX xenografts; assay: In vivo efficacy study, PDX model; design: species or system immunodeficient mice
Description: (§1) Human tumor xenografts were established in female BALB/cA nude mice (5-6 weeks old) by administering the SNU-5 and MKN-45 cells, which have high MET expression levels. For efficacy studies in patient-derived tumor xenograft (PDX) mouse models, MET-overexpressing GA0046 and GA3121 tumors (obtained from Crownbio, CA, USA) were established by directly implanting surgical tissues into immunodeficient mice. […] The subcutaneous tumor size and body weight were measured twice weekly. The tumor volumes were determined by measuring two perpendicular diameters with calipers and calculated as (length × width^2)/2.

[3] = tested on: GA3121 PDX xenografts; assay: In vivo efficacy study, PDX model; design: species or system immunodeficient mice; conditions: 20 mg/kg once per day oral gavage
Description: as §1

[4] = Phase I trial: clinical pharmacokinetics in plasma; format: in vivo, human
Description: A clinical pharmacokinetic study of CT053PTSA was performed for both single doses and multiple doses. Blood samples were collected from each subject at prespecified times before and after single-dose administration (systemic blood samples: before treatment and 0.5, 1, 2, 3, 4, 5, 8, 12, 24, 36, 48, 72, 120 and 168 hours after treatment) and during multiple dosing (cycle 1 before treatment on Days 8, 15 and 22, as well as systemic blood samples on Day 28). […]
Statistical analysis of CT053-treated tumors versus vehicle-treated tumors or versus nontreated tumors was performed by repeated-measures ANOVA. The data from the tumor xenograft models were expressed as the means ± standard error of the mean (SEM) and were plotted as a function of time. Noncompartmental pharmacokinetic analysis was performed using Phoenix WinNonlin Version 6.2.1 (Certara Inc., NJ, USA). Demographics and laboratory results of all the subjects were summarized using descriptive statistics. The pharmacokinetic parameters Tmax and T1/2 were shown as the median (min, max) and mean ± SD, respectively. A two-sided P < 0.05 was considered to indicate statistical significance. Statistical analysis was performed by using GraphPad Prism 5.0 (GraphPad Prism, RRID : SCR_002798) and SPSS software version 19.0 (SPSS, RRID : SCR_002865).

VEGFR2, sequence (P35968 20-1356): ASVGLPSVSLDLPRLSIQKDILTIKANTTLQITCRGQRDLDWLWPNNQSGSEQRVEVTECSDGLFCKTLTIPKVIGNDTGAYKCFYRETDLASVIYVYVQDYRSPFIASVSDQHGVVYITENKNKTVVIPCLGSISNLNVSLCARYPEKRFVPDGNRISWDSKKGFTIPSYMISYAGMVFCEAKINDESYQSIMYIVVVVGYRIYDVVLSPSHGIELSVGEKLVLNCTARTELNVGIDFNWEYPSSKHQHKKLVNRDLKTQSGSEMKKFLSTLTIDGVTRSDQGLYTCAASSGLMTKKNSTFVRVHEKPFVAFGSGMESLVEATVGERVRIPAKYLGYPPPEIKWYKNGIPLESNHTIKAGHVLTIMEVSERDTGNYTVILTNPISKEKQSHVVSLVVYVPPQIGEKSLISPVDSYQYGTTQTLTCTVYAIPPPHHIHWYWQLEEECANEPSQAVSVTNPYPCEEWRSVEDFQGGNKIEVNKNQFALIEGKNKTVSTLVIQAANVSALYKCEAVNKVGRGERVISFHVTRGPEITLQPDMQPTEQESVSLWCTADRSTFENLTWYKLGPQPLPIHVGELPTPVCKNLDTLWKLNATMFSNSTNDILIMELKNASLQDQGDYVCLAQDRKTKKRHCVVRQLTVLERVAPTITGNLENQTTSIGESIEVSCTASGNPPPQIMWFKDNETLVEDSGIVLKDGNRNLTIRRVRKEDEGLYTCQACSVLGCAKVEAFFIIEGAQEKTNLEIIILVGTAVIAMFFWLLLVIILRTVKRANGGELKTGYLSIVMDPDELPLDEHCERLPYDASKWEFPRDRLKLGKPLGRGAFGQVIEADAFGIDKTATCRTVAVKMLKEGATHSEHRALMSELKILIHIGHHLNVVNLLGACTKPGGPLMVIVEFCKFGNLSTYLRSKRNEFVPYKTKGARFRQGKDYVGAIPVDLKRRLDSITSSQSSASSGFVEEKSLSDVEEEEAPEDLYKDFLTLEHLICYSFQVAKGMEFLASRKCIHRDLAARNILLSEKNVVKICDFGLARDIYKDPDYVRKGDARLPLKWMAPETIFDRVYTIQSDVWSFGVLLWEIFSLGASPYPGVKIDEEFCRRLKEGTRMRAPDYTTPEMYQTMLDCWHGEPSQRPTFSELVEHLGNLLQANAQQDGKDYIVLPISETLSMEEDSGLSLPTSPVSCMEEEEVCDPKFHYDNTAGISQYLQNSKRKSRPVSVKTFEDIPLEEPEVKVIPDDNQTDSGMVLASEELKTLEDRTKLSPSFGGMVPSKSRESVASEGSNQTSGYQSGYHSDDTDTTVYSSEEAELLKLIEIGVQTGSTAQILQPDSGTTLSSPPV

SMILES: Cc1c(C(=O)Nc2ccc(Oc3ccnc4cc(OCC(C)(C)O)ccc34)c(F)c2)c(=O)n(-c2ccccc2)n1C [CT053]
- IC50 [1]: 46 nM
- TGI ([2]; 3 mg/kg once per day oral gavage): 18%
- TGI ([2]; 10 mg/kg once per day oral gavage): 57%
- TGI ([2]; 20 mg/kg once per day oral gavage): 75%
- TGI [3]: 172%
- PK profile versus dose ([4]; multiple doses, 60-100 mg): linear PK profile
- PK profile versus dose ([4]; single oral dose, 15 to 150 mg): general linear PK profile
